Our source for the Kd values is article PMC6707612, “Cyclic-di-GMP binds to histidine kinase RavS to control RavS-RavR phosphotransfer and regulates the bacterial lifestyle transition between virulence and swimming” (PLoS Pathogens, 2019).

The target in one test is PizD. More on the design: method as in PMID 26055114. Conditions: lower end of reported range; cited from earlier work.
For a further test, the target named is STING. More on the design: method as in PMID 26055114. The following applies: upper end of reported range; cited from earlier work.
Another test addresses T1, RavS^ΔTrM (Xanthomonas campestris pv. campestris, UniProt Q8P9A6).
T1 sequence (Q8P9A6 47-697): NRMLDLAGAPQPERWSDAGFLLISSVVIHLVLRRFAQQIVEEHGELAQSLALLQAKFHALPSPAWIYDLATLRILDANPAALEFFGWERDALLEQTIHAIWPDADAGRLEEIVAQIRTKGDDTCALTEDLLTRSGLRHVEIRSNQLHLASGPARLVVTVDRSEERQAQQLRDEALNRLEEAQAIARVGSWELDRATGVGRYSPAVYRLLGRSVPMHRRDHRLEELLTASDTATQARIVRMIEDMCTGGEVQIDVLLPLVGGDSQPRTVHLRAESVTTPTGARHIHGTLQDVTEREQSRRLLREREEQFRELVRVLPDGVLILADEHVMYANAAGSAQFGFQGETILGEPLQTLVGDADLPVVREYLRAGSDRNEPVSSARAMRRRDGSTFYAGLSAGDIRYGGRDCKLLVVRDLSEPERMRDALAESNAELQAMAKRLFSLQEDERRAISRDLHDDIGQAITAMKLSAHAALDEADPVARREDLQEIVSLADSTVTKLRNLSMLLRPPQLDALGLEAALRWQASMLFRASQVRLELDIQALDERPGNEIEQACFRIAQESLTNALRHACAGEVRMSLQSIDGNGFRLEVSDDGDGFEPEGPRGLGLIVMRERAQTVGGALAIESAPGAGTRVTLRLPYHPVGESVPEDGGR
In words: microscale thermophoresis (MST) binding. The following applies: 20 nM fluorescein-labelled nucleotide, read-out: dissociation constant (Kd). As to the method:
(a) c-di-GMP enhances RavS-RavR phosphotransfer in vitro. A total of 5 μM RavS^ΔN was autophosphorylated for 15 min by the addition of 10 μCi [γ-^32P]ATP. A total of 15 μM RavR^ΔEAL or RavR^ΔEAL(D496A) was added and incubated for 30 min at 25°C. A total of 100 μM c-di-GMP was added if necessary. The reactions were terminated with 5× SDS loading buffer before autoradiography. The experiment was repeated three times. (b) Time course analyses of the impact of c-di-GMP on the velocity of RavS-RavR phosphotransfer. The autophosphorylation and phosphotransfer reactions were set as mentioned in (a). Various concentrations of c-di-GMP were added to the reactions and isotopic signals (band intensities) of RavS~P were measured after autoradiography. (c–d) c-di-GMP triggered an increase in RavS-RavR phosphotransfer in a dose-dependent manner. (c) Various concentrations of c-di-GMP (0, 5, 10, 15, 30, 50, 75 and 100 μM) were added to the RavS-RavR phosphotransfer reactions. (d) The phosphorylated level of RavS^ΔN~P was quantified by ImageJ and the EC50 value was estimated by Origin 8.5 software. In (b) and (d), the intensity of each data point is the average from three experimental repeats. (e) c-di-GMP triggered increase in RavS-RavR phosphotransfer is highly specific. […] The interaction between RavS^ΔTrM and various nucleotides, including fl-c-di-GMP, fl-cGMP and fl-c-di-AMP, were measured by microscale thermophoresis (MST). A total of 20 nM fluorescein-labelled nucleotides and increasing concentrations of proteins were incubated and measured by MST. The dissociation constant (Kd) was quantified to estimate the binding affinity. […]
The interaction between c-di-GMP nucleotides and various proteins was measured by using MST with a fluorescein-labelled c-di-GMP (2′-Fluo-AHC-c-di-GMP, abbreviated as fl-c-di-GMP; 2′-Fluo-AHC-c-di-AMP, fl-c-di-AMP; 2′-Fluo-AHC-cGMP, fl-cGMP; Biolog, Germany). These chemicals contain carboxyfluorescein that has excitation and emission wavelengths of 497 nm and 520 nm, respectively, which can be detected directly by a MST instrument. […]

As to `Nc1nc2c(ncn2[C@@H]2O[C@@H]3COP(=O)(O)O[C@H]4[C@@H](O)[C@H](n5cnc6c(=O)[nH]c(N)nc65)O[C@@H]4COP(=O)(O)O[C@H]3[C@H]2O)c(=O)[nH]1` [c-di-GMP, Cyclic di-GMP], the Kd at PizD was 0.1 µM; at STING it was 14.5 µM.

For the compound `Nc1nc2c(ncn2[C@@H]2O[C@@H]3COP(=O)(O)O[C@H]4[C@@H](OC(=O)NCCCCCCNC(=O)c5ccc6c(c5)C(=O)OC65c6ccc(O)cc6Oc6cc(O)ccc65)[C@H](n5cnc6c(=O)[nH]c(N)nc65)O[C@@H]4COP(=O)(O)O[C@H]3[C@H]2O)c(=O)[nH]1` [fl-c-di-GMP, 2′-Fluo-AHC-c-di-GMP], the Kd at RavS^ΔTrM worked out at 6.06 ± 0.92 µM.
